In patent US12171744B2, “Pharmaceutical combinations for the treatment of cancer” (Presage Biosciences, Inc., priority 2016, dated 2024):
“Also recorded” adds a separate entry of the source.

Assays:
[1] = test system: HCC1187 triple negative breast cancer cells; test: Western blot of treated cells; format: cell-based
Procedure: Cell lines shown in Table 1, adherent or suspension, were treated in 6-well dishes or T10 flasks respectively, seeded at one million per ml density prior to treatment in total volumes of 3-10 ml. All agents used for in vitro cell treatments were formulated in water/DMSO to achieve required concentrations (as stated in respective figure labels/legends) with DMSO concentrations not exceeding 0.01%. Drug sources are indicated in table under ‘CIVO microinjection studies’. Cells were harvested at experimental time points: 2, 6, or 24 hours post treatment as indicated in respective figures, first by washing cells twice in ice-cold PBS in 15 ml falcon tubes, centrifugation at 1000 rpm for 5 mins followed by lysis of the respective cell pellets as described in section below. Note: Drug resistant NUDHL1 Dox 1000 nM and Toledo Dox 1000 nM cell lines were generated at Presage by culturing parental lines in media with stepwise increments in Doxorubicin concentration over several passages. These cells were used to generate xenografts when resistance to 1 uM Dox was achieved.
Protein lysates were prepared by adding ice-cold 1×RIPA Buffer (from 10×, Millipore) with 1×-3× Halt protease and phosphatase inhibitor cocktail (100×, Pierce) to cell pellets, followed by pulse sonication (˜3-5 secs) three times. Lysates were cleared by centrifugation at 14K rpm for 15-20 mins and the supernatant (lysate) was collected for further analysis. To prepare lysates from cryopreserved xenograft tumor tissue, tissue was first homogenized using a hand-held tissue homogenizer (Cole Palmer) in above lysis buffer followed by pulse sonication and centrifugation as described above. Above steps were carried out under ice cold conditions. […] 20-25 micrograms of protein from each sample were subject to SDS-PAGE using BOLT 4-12% Bis-Tris gels (Thermofisher) and transferred to either 0.45 or 0.2 micron pore size membranes (as applicable based on protein molecular size), and either nitrocellulose (NC) or pvdf (Thermofisher) using manufacturer's protocol, blocked for one hour in 5% milk at room temperature, probed with primary antibodies (Table 2) at 4 deg C. overnight and corresponding HRP-conjugated secondary antibodies (Jackson Immunoresearch, 1:10,000-1:20,000 dilutions) for 1 hour at room temperature. Three PBS/0.01% Tween-20 washes (5-10 mins each) were carried out after each antibody incubation. ECL chemiluminescent substrate (Pierce or GE) and autoradiographic film (Thermofisher) was used for detection of protein signals.
1 ug of mRNA from each condition was used to generate cDNA using the High Capacity cDNA Reverse Transcription Kit (Applied Biosystems) and manufacturer's protocol. 100 ng cDNA was used to conduct a PCR assay to amplify XBP1 u or splice forms (Thermofisher PCR Supermix)—94 deg C. for 2 mins, (94 deg C. for 15 secs, 55 deg C. for 30 secs, 72 deg C. for 1 min)×30 cycles, 72 deg C. for 7 mins, hold at 4 deg C.

[2] = test system: NudHL1 DLBCL xenografts; test: CIVO microinjection, CC3 staining after 6 hours; format: in vivo, mice; conditions: treated for 6 hours
Procedure: Mice were enrolled into CIVO drug studies when the tumor volume reached approximately 1000 mm^3. Microinjection studies were performed using the CIVO device as previously described (Klinghoffer et al, Science Translational Medicine 2015) The device was configured with 6 injection needles set for a 6 mm injection length and a total volume delivery of 3 μl. A fluorescent tracking marker (FTM) was added to each drug reservoir in vehicle for delivery along with each drug or drug combination. […] Total amounts of agents injected are tabulated below in Table 4.
FIGS. 9A-9D depict cells that were treated as above and stained for cleaved caspase-3 (CC3) as a marker of apoptosis (shown in red).
FIGS. 10A-10D depict cells that were treated as above and stained for cleaved caspase-3 (CC3) as a marker of apoptosis (shown in red).

[3] = Western blot, voruciclib and bortezomib in combination

CN1CC[C@@H](c2c(O)cc(O)c3c(=O)cc(-c4ccc(C(F)(F)F)cc4Cl)oc23)[C@@H]1CO (relative stereo) [voruciclib, (+)-trans-2-(2-Chloro-4-trifluoromethylphenyl)-5,7-dihydroxy-8-(2-hydroxymethyl-1-methylpyrrolidin-3-yl)-chromen-4-one]
MCL-1 protein expression ([1]; Western blot, compared to untreated sample): reduced | bortezomib-induced increase in MCL-1 expression [1, 3]: decreased; also recorded: diminishes | bortezomib-induced upregulation of XIAP [1, 3]: diminishes | XBP1 upregulation ([1]; voruciclib combined with either bortezomib or tunicamycin): diminished | CC3 expression [2]: little to no increase
